Experimental findings from patent US20230118497A1, “PYRAZOLE-CONTAINING POLYCYCLIC DERIVATIVE INHIBITOR, PREPARATION METHOD THEREFOR AND APPLICATION THEREOF” (Shanghai Hansoh Biomedical Co., Ltd., priority 2019, published 2023) are described below.

Series [1] is described as follows: Plasma protein binding rate (human). The class given is in vitro ADME. The settings on record: 37° C. 6 h. The method, then:
(§1) Test Example 6. Assay of Plasma Protein Binding Rate
(§2) The objective of the experiment is to determine the plasma protein binding of the compounds of the Examples in plasma.
(§3) The compound of the Example was formulated into 1 mM solution A with DMSO;
(§4) The solution A was added to the plasma solution to obtain 5 μM solution B;
(§5) 1) 200 μL of solution B was added to the inside of the membrane;
(§6) 2) […] of PBS was added to the outside of the membrane;
(§7) 3) Incubation in a water bath at 37° C. for 6 h;
(§8) 4) The sample was diluted and analyzed by mass spectrometry.

Series [2] is described as follows: Pharmacokinetic assay in Balb/C mice. The class given is in vivo. The settings on record: male, mouse, po, p.o. 5 mg/kg, plasma, 0.5% CMC-Na (1% Tween 80); for AUC(0-t): read-out: Area under curve AUC0-t; for MRT inf: read-out: Average residence time MRT0-∞; for half-life: read-out: Half life t1/2 (converted); for Tmax: read-out: Peak time tmax; for Cmax: read-out: Plasma concentration Cmax. The method, then: Test Example 3. Pharmacokinetic Assay in Balb/C Mice
Balb/C mice were used as test animals. The pharmacokinetic behavior of the compounds of Examples was studied in mouse body (plasma) by orally administration at a dose of 5 mg/kg.
Male Balb/C mice (6 mice per group), purchased from Shanghai Jiesijie Laboratory Animal Co., LTD, with Certificate No.: SCXK (Shanghai) 2013-0006 N0.311620400001794.
5 g of hydroxyethyl cellulose (HEC, CMC-Na, viscosity: 800-1200 Cps) was weighed and dissolved in 1000 mL of purified water, followed by addition of 10 g of Tween80.
After an overnight fast, male Balb/C mice were administered p.o. with the test compound at a dose of 5 mg/kg and a volume of 10 mL/kg.
0.04 mL of blood was taken from the orbit of the mouse before administration and at 0, 0.5, 1, 2, 4, 6, 8 and 24 hours after administration. The samples were stored in EDTA-K2 tubes, and centrifuged for 6 minutes at 4° C., 6000 rpm to separate the plasma. The plasma samples were stored at −80° C.
1) 160 μL of acetonitrile was added to 20 μL of the plasma sample for precipitation, and then the mixture was centrifuged at 3500×g for 5 to 20 minutes. 2) After the above process, 100 μL of the supernatant was taken to analyze the concentration of the test compound by LC/MS/MS.
2.7 Liquid Chromatography Analysis • Liquid chromatography condition: Shimadzu LC-20AD pump • Mass spectrometry condition: AB Sciex API 4000 mass spectrometer • Chromatographic column: phenomenex Gemiu 5 um C18 50×4.6 mm • Mobile phase: Eluent A was 0.1% formic acid in water, and Eluent B was acetonitrile • Flow rate: 0.8 mL/min • Elution time: 0-4.0 minutes the eluent is as follows:
The main parameters of pharmacokinetics were calculated by WinNonlin 8.2.

Series [3] has as its target T1, CYP450 enzyme isoform 2C19 (Homo sapiens, UniProt P33261).
T1 construct: single-point method using human liver microsome incubation system; from tissue; host or cells: human liver microsomes
Put plainly: CYP enzyme single-point inhibition assay, 2C19. It is filed as in vitro ADME. The conditions noted are these: human liver microsome, single-point method. The method, then: Test Example 7. CYP Enzyme Single-Point Inhibition Assay
The inhibition of the compounds on CYP450 enzyme isoformwas rapidly predicted by single-point method using human liver microsome incubation system.
2.5 mM NADPH: 4.165 mg of NADPH (reduced nicotinamide adenine dinucleotide phosphate) was weighed, followed by addition of 100 mM phosphate buffer to 2 mL. 0.25 mg/mL microsome solution: 4 mL of 100 mM phosphate buffer was added to 50 μL of 20 mg/mL microsome solution and mixed well.
The test compound of the Example was weighed, diluted to 10 mM with DMSO and then to 100 μM with 100 mM phosphate buffer.
1. 40 μL of liver microsome, 10 μL of substrate and 10 μL of the test compound were added to a 96-well plate and pre-incubated for 3 min.
2. 40 μL of NADPH was added.
3. 300 μL of acetonitrile stop solution containing internal standard was added at 20 min.
4. The sample was centrifuged and injected.

Series [4] in a line: Plasma protein binding rate (mouse). The class given is in vitro ADME. The settings on record: 37° C. 6 h. The method, then:
as §1, §2, §3, §4, §5, §6, §7, §8

Another series concerns the target T2, hERG potassium channel (Homo sapiens, UniProt Q12809).
T2 construct: expressed in transfected cells; host or cells: CHO
Put plainly: hERG potassium channel inhibition activity assay (Qpatch, CHO-hERG cells). The class given is cell-based. The settings on record: Qpatch whole-cell, highest test concentration 40 μM. The method, then:
Test Example 8. hERG Potassium Channel Inhibition Activity Assay
7.1.1 CHO-hERG cells were cultured in a 175 cm^2 culture flask. After the cell density reached 60-80%, the culture solution was removed. The cells were washed with 7 mL of PBS once, and dissociated with 3 mL of Detachin.
7.1.2 After completion of dissociation, the cells were neutralized with 7 mL of culture solution. The solution was centrifuged, and the supernate was removed. The cells were resuspended in 5 mL of culture solution. The cell indensity is ensured as 2˜5×10^6/mL.
Single cell sealing impedance and formation of whole-cell mode were automatically performed by Qpatch instrument. After obtaining the whole-cell recording mode, the cell was clamped at −80 mV. The cell first underwent pre-voltage of −50 mV for 50 msec, then underwent depolarization stimulation at +40 mV for 5 sec, and then underwent repolarization at −50 mV for 5 sec, and then the voltage returned to −80 mV The cell underwent the stimulation at the voltage every 15 sec. The data were recorded for 2 min, then extracellular fluid was administrated, and then the data were recorded for 5 min. Then, the administration process begun. The concentration of the test compound started from the lowest concentration, and each test concentration was administrated for 2.5 min. At least three cells (n≥3) were tested for each concentration.
4.1 20 mM mother liquor of the compound was diluted with extracellular fluid. […] of extracellular fluid was added to 5 μL of 20 mM mother liquor of the compound to obtain a concentration of 40 μM (500-fold dilution). The solution was subjected to a 3-fold serial dilution with extracellular fluid containing 0.2% DMSO to obtain a required final concentration.
This concentration of DMSO had no effect on hERG potassium channel.
The experimental data was analyzed by XLFit software.
In general terms: The hERG channel carries a current that helps repolarise heart muscle cells.

A value given as a limit tells only on which side of the number the result lay.

T1 sequence (P33261 whole entry, canonical isoform): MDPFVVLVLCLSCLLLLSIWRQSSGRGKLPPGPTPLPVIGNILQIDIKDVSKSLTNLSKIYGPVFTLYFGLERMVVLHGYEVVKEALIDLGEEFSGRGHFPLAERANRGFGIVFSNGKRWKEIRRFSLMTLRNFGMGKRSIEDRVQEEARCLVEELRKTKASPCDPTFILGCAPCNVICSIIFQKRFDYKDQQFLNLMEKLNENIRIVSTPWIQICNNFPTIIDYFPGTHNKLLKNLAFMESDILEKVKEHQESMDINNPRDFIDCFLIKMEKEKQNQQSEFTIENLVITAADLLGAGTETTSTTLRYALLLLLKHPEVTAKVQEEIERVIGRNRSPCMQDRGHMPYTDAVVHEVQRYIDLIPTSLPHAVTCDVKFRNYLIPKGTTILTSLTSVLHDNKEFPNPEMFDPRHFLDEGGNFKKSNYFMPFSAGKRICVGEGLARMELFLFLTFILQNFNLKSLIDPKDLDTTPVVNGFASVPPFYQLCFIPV
T2 sequence (Q12809 whole entry): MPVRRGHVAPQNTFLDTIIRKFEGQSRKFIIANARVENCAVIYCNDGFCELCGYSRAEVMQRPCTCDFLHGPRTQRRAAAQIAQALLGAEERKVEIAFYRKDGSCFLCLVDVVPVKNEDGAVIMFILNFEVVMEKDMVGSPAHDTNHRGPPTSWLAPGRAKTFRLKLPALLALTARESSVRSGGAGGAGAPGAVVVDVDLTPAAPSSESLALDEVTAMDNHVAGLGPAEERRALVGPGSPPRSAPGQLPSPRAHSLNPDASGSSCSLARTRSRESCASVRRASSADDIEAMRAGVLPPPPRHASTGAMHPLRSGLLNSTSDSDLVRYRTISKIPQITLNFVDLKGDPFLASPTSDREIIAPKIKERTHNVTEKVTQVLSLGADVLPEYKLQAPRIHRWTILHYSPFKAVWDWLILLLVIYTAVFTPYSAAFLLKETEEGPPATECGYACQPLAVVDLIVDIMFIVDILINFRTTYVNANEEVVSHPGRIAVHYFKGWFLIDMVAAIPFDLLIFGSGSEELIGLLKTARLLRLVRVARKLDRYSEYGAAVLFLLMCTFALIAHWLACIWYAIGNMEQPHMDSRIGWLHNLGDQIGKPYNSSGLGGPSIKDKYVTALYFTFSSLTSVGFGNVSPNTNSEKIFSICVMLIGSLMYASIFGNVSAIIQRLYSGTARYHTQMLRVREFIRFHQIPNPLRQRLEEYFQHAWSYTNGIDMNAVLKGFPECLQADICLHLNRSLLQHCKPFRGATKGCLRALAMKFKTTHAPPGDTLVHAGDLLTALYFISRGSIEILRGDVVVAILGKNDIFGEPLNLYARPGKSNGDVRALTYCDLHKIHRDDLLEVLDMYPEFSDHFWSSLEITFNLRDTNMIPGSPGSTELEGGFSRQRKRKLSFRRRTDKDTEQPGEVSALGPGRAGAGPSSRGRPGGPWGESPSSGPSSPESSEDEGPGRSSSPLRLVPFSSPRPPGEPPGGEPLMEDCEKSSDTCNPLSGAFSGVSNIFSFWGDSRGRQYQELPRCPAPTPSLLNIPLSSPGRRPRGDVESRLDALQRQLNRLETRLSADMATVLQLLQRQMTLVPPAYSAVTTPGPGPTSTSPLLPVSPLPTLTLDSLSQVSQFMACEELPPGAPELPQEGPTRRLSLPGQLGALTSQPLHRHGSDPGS

What is called fraction unbound is free concentration divided by total concentration. Low readings indicate extensive binding, high ones weak binding. A word on the Tmax: it is the time at which the peak concentration occurs. In general, IC50 refers to the concentration at which inhibition is half-maximal. In turn, `CCc1cc2n(CC(=O)Nc3ccc(F)cn3)c(=O)c3ccc(C(F)(F)F)nc3n2n1` [Example 34, 2-(2-Ethyl-5-oxo-8-(trifluoromethyl)pyrazolo[1,5-a]pyrido[3,2-e]pyrimidin-4(5H)-yl)-N-(5-fluoropyridin-2-yl)acetamide] gave a free fraction (fraction unbound) at 6 h, 5 μM in series [1] of 0.015. Also, in series [2], the AUC(0-t) was determined as 7580 ng·h/mL, the MRT inf was 2.3 h, the half-life was 1.4 h and the Tmax was 1 h. The Cmax in series [2] was 2360 ng/mL. This molecule also returned an IC50 in series [3] above 100 µM. In series [4], the fraction unbound at 6 h, 5 μM worked out at 0.043.
For the molecule `O=C(Cn1c(=O)c2ccc(C(F)(F)F)nc2n2nc(Br)cc12)Nc1ccc(F)cn1` [Example 61-A, 2-(2-bromo-5-oxo-8-(trifluoromethyl)pyrazolo[1,5-a]pyrido[3,2-e]pyrimidin-4(5H)-yl)-N-(5-fluoropyridin-2-yl)acetamide], the fraction unbound at 6 h, 5 μM in series [1] turned out to be 0.016. In addition, in series [2], the AUC(0-t) was found to be 30500 ng·h/mL, the MRT inf was found to be 5.6 h, the half-life was 4.6 h and the Tmax stood at 2 h. Also, the Cmax in series [2] was determined as 3430 ng/mL. Besides, the IC50 in series [3] is above 100 µM. The same molecule showed a fraction unbound at 6 h, 5 μM in series [4] of 0.044. Also, the IC50 at hERG potassium channel was above 10 µM.
Molecule `N#Cc1cc2n(CC(=O)Nc3ccc(F)cn3)c(=O)c3ccc(C(F)(F)F)nc3n2n1` [Example 68, 2-(2-Cyano-5-oxo-8-(trifluoromethyl)pyrazolo[1,5-a]pyrido[3,2-e]pyrimidin-4(5H)-yl)-N-(5-fluoropyridin-2-yl)acetamide] yielded an unbound share (fraction unbound) at 6 h, 5 μM in series [1] of 0.066. Besides, in series [2], the AUC(0-t) came to 10200 ng·h/mL, the MRT inf was 3.8 h, the half-life is 1.8 h and the time of peak concentration (Tmax) was found to be 2 h. For the same molecule, the Cmax in series [2] is 1830 ng/mL. In series [3], this molecule showed a concentration for half-maximal inhibition (IC50) above 100 µM. In series [4], this molecule registered a fraction unbound at 6 h, 5 μM of 0.162. Moreover, the concentration for half-maximal inhibition (IC50) at hERG potassium channel is 18.4 µM.
In the case of `O=C(Cn1c(=O)c2ccc(C(F)(F)F)nc2n2nccc12)Nc1ccc(F)cn1` [Example 78, N-(5-Fluoropyridin-2-yl)-2-(5-oxo-8-(trifluoromethyl)pyrazolo[1,5-a]pyrido[3,2-e]pyrimidin-4(5H)-yl)acetamide], in series [1], the fraction unbound at 6 h, 5 μM is 0.103. Also, in series [2], the AUC(0-t) was found to be 5040 ng·h/mL, the MRT inf was 2.5 h, the half-life was 1.6 h and the time of peak concentration (Tmax) was 1 h. Further, in series [2], the Cmax was determined as 1290 ng/mL. Further, the IC50 in series [3] was above 100 µM. Besides, in series [4], the unbound share (fraction unbound) at 6 h, 5 μM is 0.084. The molecule also displayed an IC50 at hERG potassium channel above 10 µM.
For `N#Cc1cnn2c3nc(C(F)(F)F)ccc3c(=O)n(CC(=O)Nc3ccc(F)cn3)c12` [Example 80, 2-(3-Cyano-5-oxo-8-(trifluoromethyl)pyrazolo[1,5-a]pyrido[3,2-e]pyrimidin-4(5H)-yl)-N-(5-fluoropyridin-2-yl)acetamide], the fraction unbound at 6 h, 5 μM was 0.135 in series [1] and 0.256 in series [4]. At hERG potassium channel, this molecule gave an IC50 above 20 µM.
